In article PMC7602263, “Exploring the Use of Helicogenic Amino Acids for Optimising Single Chain Relaxin-3 Peptide Agonists” (Biomedicines, 2020):
Where a SMILES comes first, the peptide text is derived from it. Bridges are numbered along the chain shown (N, C = ends). Where no end group is shown, it is not given here. [ ]: non-standard residue; d: D form. S5 = C=CCCC[C@](C)(N)C(=O)O

Legend:
RXFP3 [1] = target: T1, RXFP3 (Homo sapiens, UniProt Q9NSD7); design: method as in 2 sources, one per row (each row's own in cited_ref): ref [37] = [37]; PMID 25792111; doi:10.1007/s00726-015-1961-x; 37. Haugaard-Kedström L.M. Wong L.L. Bathgate R.A. Rosengren K.J. Synthesis and pharmacological characterization of a europium-labelled single-chain antagonist for binding studies of the relaxin-3 rec ||| ref [28] = [28]; PMID 27464307; doi:10.1021/acs.jmedchem.6b00265; 28. Hojo K. Hossain M.A. Tailhades J. Shabanpoor F. Wong L.L. Ong-Palsson E.E. Kastman H.E. Ma S.K. Gundlach A.L. Rosengren K.J. Development of a single-chain peptide agonist of the relaxin-3 receptor; conditions: read-out: Kd for Eu-R3 B1-22R; Kd of the Eu-labelled tracer at RXFP3, used to calculate pKi values; assay as previously described; ref [37]; cited from earlier work
T1 construct: expressed in transfected cells; host or cells: CHO-K1
T1 sequence (Q9NSD7 1-469): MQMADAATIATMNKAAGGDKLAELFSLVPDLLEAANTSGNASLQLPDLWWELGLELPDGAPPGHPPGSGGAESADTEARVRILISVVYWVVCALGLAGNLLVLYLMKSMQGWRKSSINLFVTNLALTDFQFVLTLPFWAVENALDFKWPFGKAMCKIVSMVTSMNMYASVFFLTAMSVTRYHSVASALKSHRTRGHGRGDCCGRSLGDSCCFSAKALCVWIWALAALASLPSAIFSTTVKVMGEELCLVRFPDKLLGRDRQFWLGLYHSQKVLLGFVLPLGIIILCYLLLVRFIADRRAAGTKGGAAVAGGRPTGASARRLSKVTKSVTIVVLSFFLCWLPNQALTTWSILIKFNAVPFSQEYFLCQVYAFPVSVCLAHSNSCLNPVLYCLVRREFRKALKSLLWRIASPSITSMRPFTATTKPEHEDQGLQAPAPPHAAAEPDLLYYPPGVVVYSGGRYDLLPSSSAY

RXFP3 [2] = target: T1, RXFP3; assay: Competition binding assay with Eu-labelled R3 B1-22R on CHO-K1 cells stably expressing RXFP3; conditions: SEM; read-out: pKi [logM] (converted)
Description: Determination of binding affinity in this study was carried out as previously described. Briefly, CHO-K1 cells stably expressing RXFP3 [38] were treated with 5 nM Eu-labelled R3 B1-22R with increasing concentrations of novel analogues. Fluorescence measurement were recorded with 340 nm excitation and 614 nm emission wavelengths. Assays were conducted in triplicates and independently repeated at least three times. […] Statistical analyses were conducted using 1-way ANOVA with uncorrected Fisher’s least square difference in GraphPad Prism 8.0.
(§1) To determine their binding affinity, the ability of increasing concentration of analogues to compete with europium labelled R3 B1-22R were measured using CHO cells stably expressing RXFP3 [37]. Their potency at RXFP3 was measured by inhibition of cAMP accumulation induced by forskolin, as RXFP3 couples to an inhibitory G-protein.

RXFP3 [3] = target: T1, RXFP3; assay: cAMP activity assay: inhibition of forskolin-induced cAMP accumulation in CHO-K1 cells stably expressing RXFP3; format: cell-based; conditions: for EC50: CHO-K1 cells stably expressing RXFP3, inhibition of cAMP accumulation stimulated by 5 μM forskolin, mean ± SEM, triplicates, three independent experiments
Description: CHO-KI cells stably expressing RXFP3 were used to study the ability of the novel analogues to inhibit forskolin-induced cAMP accumulation. Assays were conducted as previously described. Briefly, 5 μM forskolin was used to stimulate the cells and increasing concentrations of the novel analogues were added to measure the dose-dependent reduction in the cAMP response via activation of the Gi/o-coupled RXFP3. Each analogue was tested in triplicates and each experiment was independently repeated three times. Data are presented as mean ± SEM and were analysed using GraphPad Prism 8.0. Statistical analyses were conducted using 1-way ANOVA and uncorrected Fisher’s least square difference.
as §1

Molecule	Ki (RXFP3 [2])	EC50 (RXFP3 [3]; SEM)	EC50 (RXFP3 [3])	maximum cAMP accumulation inhibition (RXFP3 [3]; at the highest concentration tested, CHO-K1 cells expressing RXFP3, forskolin-stimulated (Figure 3))	Kd (RXFP3 [1])
Eu-R3 B1-22R: europium-labelled single-chain antagonist used as tracer in the RXFP3 binding assay (RAAPYGVRLSGREFIRAVIFTSR; also: europium chelate label, attachment site not given here)					27.9 ± 9.4 nM
CC[C@H](C)[C@@H]1NC(=O)[C@H](Cc2ccccc2)NC(=O)[C@@H](NC(=O)[C@H](CCCNC(=N)N)NC(=O)CNC(=O)[C@H](CO)NC(C)=O)CSCc2cccc(c2)CSC[C@@H](C(=O)N[C@H](C(=O)N[C@H](C(=O)N[C@@H](Cc2ccccc2)C(=O)N[C@H](C(=O)N[C@@H](CO)C(=O)NCC(=O)NCC(=O)N[C@@H](CO)C(=O)N[C@@H](CCCNC(=N)N)C(=O)N[C@@H](Cc2c[nH]c3ccccc23)C(=O)O)[C@@H](C)O)[C@@H](C)CC)C(C)C)NC(=O)[C@H](CCCNC(=N)N)NC1=O [Analogue 17] (HELM PEPTIDE1{[ac].S.G.R.C.F.I.R.C.V.I.F.T.S.G.G.S.R.W}|CHEM1{[c1cc(C[*:1])cc(C[*:2])c1]}$PEPTIDE1,CHEM1,5:R3-1:R1|PEPTIDE1,CHEM1,9:R3-1:R2$$$V2.0)	1050 nM	851 nM			
CC[C@H](C)[C@H](NC(=O)[C@H](Cc1ccccc1)NC(=O)C(C)(C)NC(=O)[C@H](CCCNC(=N)N)NC(=O)CNC(=O)[C@@H](N)CO)C(=O)N[C@@H](CCCNC(=N)N)C(=O)NC(C)(C)C(=O)N[C@H](C(=O)N[C@H](C(=O)N[C@@H](Cc1ccccc1)C(=O)N[C@H](C(=O)NC(C)(C)C(=O)NCC(=O)NCC(=O)N[C@@H](CO)C(=O)N[C@@H](CCCNC(=N)N)C(=O)N[C@@H](Cc1c[nH]c2ccccc12)C(=O)O)[C@@H](C)O)[C@@H](C)CC)C(C)C [Analogue 7] (HELM PEPTIDE1{S.G.R.[Aib].F.I.R.[Aib].V.I.F.T.[Aib].G.G.S.R.W}$$$$V2.0)	1120 nM		> 10000 nM	~ 50%	
CC[C@H](C)[C@H](NC(=O)[C@H](Cc1ccccc1)NC(=O)C(C)(C)NC(=O)[C@H](CCCNC(=N)N)NC(=O)CNC(=O)[C@H](CO)NC(C)=O)C(=O)N[C@@H](CCCNC(=N)N)C(=O)NC(C)(C)C(=O)N[C@H](C(=O)N[C@H](C(=O)N[C@@H](Cc1ccccc1)C(=O)NC(C)(C)C(=O)N[C@@H](CO)C(=O)NCC(=O)NCC(=O)N[C@@H](CO)C(=O)N[C@@H](CCCNC(=N)N)C(=O)N[C@@H](Cc1c[nH]c2ccccc12)C(=O)O)[C@@H](C)CC)C(C)C [Analogue 6] (HELM PEPTIDE1{[ac].S.G.R.[Aib].F.I.R.[Aib].V.I.F.[Aib].S.G.G.S.R.W}$$$$V2.0)	1700 nM	1860 nM			

The next lines start with results.

Ki (RXFP3 [2])	EC50 (RXFP3 [3]; SEM)	EC50 (RXFP3 [3])	maximum cAMP accumulation inhibition (RXFP3 [3]; at the highest concentration tested, CHO-K1 cells expressing RXFP3, forskolin-stimulated (Figure 3))	Molecule	Kd (RXFP3 [1])
759 nM	33.1 nM			CC[C@H](C)[C@H](NC(=O)[C@H](Cc1ccccc1)NC(=O)C(C)(C)NC(=O)[C@H](CCCNC(=N)N)NC(=O)CNC(=O)[C@H](CO)NC(C)=O)C(=O)N[C@@H](CCCNC(=N)N)C(=O)NC(C)(C)C(=O)NC(C)(C)C(=O)N[C@H](C(=O)N[C@@H](Cc1ccccc1)C(=O)N[C@H](C(=O)N[C@@H](CO)C(=O)NCC(=O)NCC(=O)N[C@@H](CO)C(=O)N[C@@H](CCCNC(=N)N)C(=O)N[C@@H](Cc1c[nH]c2ccccc12)C(=O)O)[C@@H](C)O)[C@@H](C)CC [Analogue 4] (HELM PEPTIDE1{[ac].S.G.R.[Aib].F.I.R.[Aib].[Aib].I.F.T.S.G.G.S.R.W}$$$$V2.0)	
182 nM	6.46 nM			CC[C@H](C)[C@@H]1NC(=O)[C@H](Cc2ccccc2)NC(=O)[C@@](C)(NC(=O)[C@H](CCCNC(=N)N)NC(=O)CNC(=O)[C@H](CO)NC(=O)[C@H](CCCCN)NC(=O)[C@H](CCCCN)NC(=O)[C@H](CCCCN)NC(=O)[C@@H](N)CCCCN)CCCC=CCCC[C@@](C)(C(=O)N[C@H](C(=O)N[C@H](C(=O)N[C@@H](Cc2ccccc2)C(=O)N[C@H](C(=O)N[C@@H](CO)C(=O)NCC(=O)NCC(=O)N[C@@H](CO)C(=O)N[C@@H](CCCNC(=N)N)C(=O)N[C@@H](Cc2c[nH]c3ccccc23)C(=O)O)[C@@H](C)O)[C@@H](C)CC)C(C)C)NC(=O)[C@H](CCCNC(=N)N)NC1=O [Analogue 12] (H-KKKKSGR[S5]FIR[S5]VIFTSGGSRW-OH; staple 8-12)	
1480 nM	550 nM			CC[C@H](C)[C@H](NC(=O)[C@@H](NC(=O)C(C)(C)NC(=O)[C@H](CCCNC(=N)N)NC(=O)[C@@H](NC(=O)C(C)(C)NC(=O)C(C)(C)NC(=O)[C@H](CCCNC(=N)N)NC(=O)CNC(=O)[C@H](CO)NC(C)=O)[C@@H](C)CC)C(C)C)C(=O)N[C@@H](Cc1ccccc1)C(=O)N[C@H](C(=O)N[C@@H](CO)C(=O)NCC(=O)NCC(=O)N[C@@H](CO)C(=O)N[C@@H](CCCNC(=N)N)C(=O)N[C@@H](Cc1c[nH]c2ccccc12)C(=O)O)[C@@H](C)O [Analogue 2] (HELM PEPTIDE1{[ac].S.G.R.[Aib].[Aib].I.R.[Aib].V.I.F.T.S.G.G.S.R.W}$$$$V2.0)	
